Columns and labels:
DSS-induced colitis mice = DSS-induced colitis mice model (Disease Activity Index, colon length); type: in vivo, Balb/c mice; conditions: 5% DSS in drinking water; 20 μg daily ip, one week
From the text: FIG. 2: OXA ameliorates the DAI (weight and colitis score) of DSS-induced colitis mice. Mice were orally treated with 5% DSS for 7 days in the presence or in the absence of daily intraperitoneal injection of OxA (0.22 μmoles/kg). Left, determination of gain or loss of weight in the absence of DSS treatment (Control,▴), in the presence of DSS treatment (DSS,▪) and in the presence of DSS associated to OxA treatment (DSS+OxA,●). Right, evaluation of Disease Activity Index (DAI) scored by measuring weight, length of colon, diarrhea and blood presence in the stool in DSS untreated control mice (Control,A), in DSS treated mice (DSS,▪) and in DSS treated mice associated to OxA treatment (DSS+OxA,●).
FIG. 14: Effect of daily ip inoculation of OxA, Suvorexant and Almorexant on the length of colon from DSS—(dextran sulfate sodium) treated mice mimicking the acute ulcerative colitis disease. A. Mice were treated with 5% (w/v) DSS in drinking water and daily injected with 20 μg of OxA (OXA IP), 20 μg of Suvorexant (Suvo) or 20 μg of Almorexant (Almo). Control (wt) or treated DSS mice (DSS) were daily injected with 100 μl PBS. After one week of treatment, mice were sacrificed and the length of colon which represented a good marker of inflammation state, was measured. […] B. quantification of colon length from 5 different DSS-treated mice injected with OxA (DSS+OXA IP), Almorexant (DSS+Almo), Suvorexant (DSS+Suvo) or not injected (WT and DSS). NS, no significant; *, p<0.05; ** p<0.001
Based on these observations, we have investigated the effect of Orexin A (OxA) on acute inflammation in mice treated with Dextran Sulfate Sodium (DSS). OxA was preferentially chosen in these experiments since the presence of two disulphide bridges confers it more stability. DSS induces acute colitis characterized by weight loss, bloody diarrhea, intestinal ulcerations and infiltrations with granulocytes.
DSS-induced colitis mice models: Balb/c mice were orally treated by 5% (w/v) of Dextran Sulfate Sodium (DSS) for 7 days. Orexin treatment was carried out in DSS treated mice by daily intraperitoneal injection of OxA (0.22 μmoles/kg) for 7 days. Weight and colitis symptoms (diarrhea, blood in the stool . . . ) for each mouse was daily measured. After 7 days of treatment, animals were sacrificed and colons were resected to further analyses (size, histological aspect, cytokine assays).
The inventors have thus investigated the effect of daily intraperitoneal inoculation of OxA, Suvorexant and Almorexant in the experimental context of EXAMPLE 1 (colitis). In particular they investigated the effects of the drugs on the length of colon from DSS-(dextran sulfate sodium) treated mice mimicking the acute ulcerative colitis disease. […]

HEK-OX1R cells = experiment: Cells growth determination, HEK-OX1R cells; type: cell-based; conditions: 48 hr; OxA 0.1 μM, SB408124 increasing concentrations
Protocol: (§1) FIG. 12: Determination of the inhibition of cellular growth of HEK-OX1R cells and colon adenocarcinoma cells (HT-29) induced by 0.1 μM of OxA or various concentrations of SB408124 antagonist. HEK-OX1R cells (black column) and HT-29 cells (white column) were incubated with 0.1 μM of OxA and indicated increasing concentration of SB408124, and cells were counted after 48 hr incubation. Results are expressed as the percentage of total viable cells.
(§2) Cells growth determination and apoptosis assay: HEK-OX1R cells or colon adenocarcinoma HT-29 cells were seeded, grown and maintained at 37° C. in a humidified 5% CO2/air incubator. After 24 hr culture, cells were treated with or without Orexin-A peptide or SB408124 antagonist, previously dissolved in DMSO, to be tested at the concentration indicated in the figure legends. After 48 hr of treatment, adherent cells were harvested by Trip1E (Life Technologies, Saint Aubin, France) and manually counted. Apoptosis was determined using the Guava PCA system and the Guava nexin kit.

[1] = test system: colon adenocarcinoma HT-29 cells; experiment: Cells growth determination, HT-29 cells; type: cell-based; conditions: 48 hr; OxA 0.1 μM, SB408124 increasing concentrations
Protocol: as §1, §2

[2] = test system: colon adenocarcinoma HT-29 cells; experiment: Apoptosis assay (annexin V-PE binding, Guava nexin kit) in HT-29 cells; type: cell-based; conditions: 48 h; orexin-A 1 μM, SB408124 various concentrations
Protocol: FIG. 13: Effect of orexin-A and SB408124 antagonist on apoptosis in OX1R expressing colon adenocarcinoma cells, HT-29. HT-29 cells were challenged with 1 μM orexin-A or various concentration of SB408124 for 48 h. Apoptosis was measured by determination of annexin V-PE binding, and results are expressed as the percentage of apoptotic cells. Results are means±SE of three experiments. ***P<0.001.
as §2

OX1R = molecular target: T1, OX1R (Homo sapiens, UniProt O43613, A280G); experiment: Ca2+ mobilization assay in HEK-OX1R cells (FluoForte); type: cell-based; conditions: pre-incubation 1 μM for 1 h, then 1 μM OxA
T1 construct: HEK cells expressing recombinant native OX1R (HEK-OX1R); expressed in transfected cells; host or cells: HEK cells (HEK-OX1R)
T1 sequence (O43613 1-425 A280G): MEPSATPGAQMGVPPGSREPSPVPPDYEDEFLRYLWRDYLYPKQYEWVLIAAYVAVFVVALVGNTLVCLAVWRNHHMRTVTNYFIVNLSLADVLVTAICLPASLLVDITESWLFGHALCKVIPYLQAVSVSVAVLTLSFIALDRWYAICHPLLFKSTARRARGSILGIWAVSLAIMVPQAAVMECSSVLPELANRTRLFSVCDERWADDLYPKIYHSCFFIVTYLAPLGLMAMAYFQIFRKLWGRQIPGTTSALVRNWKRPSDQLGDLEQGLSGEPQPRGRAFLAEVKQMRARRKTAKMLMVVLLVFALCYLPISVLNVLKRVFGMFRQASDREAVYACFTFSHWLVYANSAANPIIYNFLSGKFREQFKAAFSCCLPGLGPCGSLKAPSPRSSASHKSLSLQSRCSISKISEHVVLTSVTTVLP

Structure (SMILES) | Protection from DSS induced acute ulcerative colitis (length of colon) (DSS-induced colitis mice) | Inhibition of cellular growth of HEK-OX1R cells (HEK-OX1R cells) | Inhibition of cellular growth of HT-29 cells [1] | Apoptosis in HT-29 cells [2] | Effect on OxA-induced Ca2+ mobilization in HEK-OX1R cells (OX1R)
CNC(=O)[C@@H](c1ccccc1)N1CCc2cc(OC)c(OC)cc2[C@@H]1CCc1ccc(C(F)(F)F)cc1 [Almorexant] | protect mice from DSS induced acute ulcerative colitis disease | – | – | – | –
Cc1cc(NC(=O)Nc2ccc(N(C)C)cc2)c2cc(F)cc(F)c2n1 [SB408124] | – | strong inhibition in a dose-dependent manner | strong inhibition in a dose-dependent manner | able to induce in a dose-dependent manner cell apoptosis | totally abolished
Cc1ccc(-n2nccn2)c(C(=O)N2CCN(c3nc4cc(Cl)ccc4o3)CC[C@H]2C)c1 [Suvorexant] | protect mice from DSS induced acute ulcerative colitis disease | – | – | – | –
